Test results as given in ChEMBL document CHEMBL1909046, “DrugMatrix in vitro pharmacology data”.

What was measured:
D(3) dopamine receptor = D(3) dopamine receptor (Homo sapiens, UniProt P35462); assay: DRUGMATRIX: Dopamine D3 radioligand binding (ligand: [3H] Spiperone); type: cell membranes, CHO, Membrane; conditions: for Ki: read-out: Ki
[1] = DRUGMATRIX: GABAA, Flunitrazepam, Central radioligand binding (ligand: [3H] Flunitrazepam); type: cell membranes, Rattus norvegicus, Wistar, Brain, Membrane; conditions: Not Active = under 50% inhibition at 10 µM
[2] = biological target: T1, Alpha-1A adrenergic receptor (Rattus norvegicus, UniProt P43140); assay: DRUGMATRIX: Alpha-1A adrenergic receptor radioligand binding (ligand: prazosin); type: cell membranes, Wistar, Submaxillary gland, Membrane; conditions: Not Active = under 50% inhibition at 10 µM; for Ki: read-out: Ki
T1 sequence (P43140 whole entry): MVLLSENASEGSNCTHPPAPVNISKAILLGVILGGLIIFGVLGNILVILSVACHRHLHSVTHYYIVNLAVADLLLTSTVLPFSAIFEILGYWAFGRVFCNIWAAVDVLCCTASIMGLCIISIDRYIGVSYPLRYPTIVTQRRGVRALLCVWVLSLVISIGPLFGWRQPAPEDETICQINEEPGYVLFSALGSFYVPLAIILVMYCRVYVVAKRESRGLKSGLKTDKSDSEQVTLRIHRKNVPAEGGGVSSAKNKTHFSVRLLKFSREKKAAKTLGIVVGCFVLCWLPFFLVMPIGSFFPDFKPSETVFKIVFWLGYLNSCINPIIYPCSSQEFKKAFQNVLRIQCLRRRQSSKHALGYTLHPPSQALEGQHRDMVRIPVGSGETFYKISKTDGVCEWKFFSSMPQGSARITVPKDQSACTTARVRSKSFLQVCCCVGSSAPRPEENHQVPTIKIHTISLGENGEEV

[3] = biological target: T2, Receptor-type tyrosine-protein phosphatase C (Homo sapiens, UniProt P08575); set-up: species or system Escherichia coli;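 note: inhibition of CD45 enzyme activity measured using DiFMUP as substrate; in other assays of this panel Not Active means under 50% inhibition at 10 µM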
T2 sequence (P08575 whole entry): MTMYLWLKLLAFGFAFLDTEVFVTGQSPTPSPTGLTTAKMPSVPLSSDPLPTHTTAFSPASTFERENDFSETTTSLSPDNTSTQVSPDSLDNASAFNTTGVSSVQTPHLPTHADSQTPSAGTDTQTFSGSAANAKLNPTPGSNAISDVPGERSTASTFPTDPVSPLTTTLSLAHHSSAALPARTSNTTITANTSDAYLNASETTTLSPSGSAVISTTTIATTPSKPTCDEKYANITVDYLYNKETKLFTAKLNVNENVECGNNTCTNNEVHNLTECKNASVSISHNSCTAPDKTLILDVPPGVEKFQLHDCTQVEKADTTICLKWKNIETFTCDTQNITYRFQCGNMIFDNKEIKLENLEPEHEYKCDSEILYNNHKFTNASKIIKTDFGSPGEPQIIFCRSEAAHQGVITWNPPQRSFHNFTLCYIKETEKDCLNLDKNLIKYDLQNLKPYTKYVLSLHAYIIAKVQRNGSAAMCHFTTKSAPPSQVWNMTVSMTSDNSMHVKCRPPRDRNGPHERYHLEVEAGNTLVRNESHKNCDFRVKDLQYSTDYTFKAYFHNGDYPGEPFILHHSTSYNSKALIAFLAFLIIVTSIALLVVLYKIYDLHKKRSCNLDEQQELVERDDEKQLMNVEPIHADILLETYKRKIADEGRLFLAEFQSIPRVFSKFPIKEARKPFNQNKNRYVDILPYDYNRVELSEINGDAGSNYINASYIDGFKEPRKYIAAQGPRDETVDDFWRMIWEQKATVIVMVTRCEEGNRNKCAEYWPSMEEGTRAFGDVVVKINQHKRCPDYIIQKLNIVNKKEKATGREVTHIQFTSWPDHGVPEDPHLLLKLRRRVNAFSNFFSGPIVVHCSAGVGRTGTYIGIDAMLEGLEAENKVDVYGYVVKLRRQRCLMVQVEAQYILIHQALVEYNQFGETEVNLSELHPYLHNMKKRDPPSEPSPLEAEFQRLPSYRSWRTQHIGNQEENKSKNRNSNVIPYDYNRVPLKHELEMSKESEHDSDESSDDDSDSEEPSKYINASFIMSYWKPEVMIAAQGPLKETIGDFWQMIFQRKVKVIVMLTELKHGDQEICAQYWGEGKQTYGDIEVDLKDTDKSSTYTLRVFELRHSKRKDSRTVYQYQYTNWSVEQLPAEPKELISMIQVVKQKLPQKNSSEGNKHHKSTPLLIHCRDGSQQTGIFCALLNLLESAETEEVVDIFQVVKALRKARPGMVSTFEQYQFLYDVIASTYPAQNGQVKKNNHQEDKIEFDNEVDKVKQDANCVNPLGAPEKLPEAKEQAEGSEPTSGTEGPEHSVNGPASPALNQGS

[4] = biological target: Sodium-dependent noradrenaline transporter (Homo sapiens, UniProt P23975); assay: DRUGMATRIX: Norepinephrine Transporter radioligand binding (ligand: [125I] RTI-55); type: cell membranes, MDCK, Membrane; conditions: Not Active = under 50% inhibition at 10 µM
Chain of Sodium-dependent noradrenaline transporter (P23975 whole entry): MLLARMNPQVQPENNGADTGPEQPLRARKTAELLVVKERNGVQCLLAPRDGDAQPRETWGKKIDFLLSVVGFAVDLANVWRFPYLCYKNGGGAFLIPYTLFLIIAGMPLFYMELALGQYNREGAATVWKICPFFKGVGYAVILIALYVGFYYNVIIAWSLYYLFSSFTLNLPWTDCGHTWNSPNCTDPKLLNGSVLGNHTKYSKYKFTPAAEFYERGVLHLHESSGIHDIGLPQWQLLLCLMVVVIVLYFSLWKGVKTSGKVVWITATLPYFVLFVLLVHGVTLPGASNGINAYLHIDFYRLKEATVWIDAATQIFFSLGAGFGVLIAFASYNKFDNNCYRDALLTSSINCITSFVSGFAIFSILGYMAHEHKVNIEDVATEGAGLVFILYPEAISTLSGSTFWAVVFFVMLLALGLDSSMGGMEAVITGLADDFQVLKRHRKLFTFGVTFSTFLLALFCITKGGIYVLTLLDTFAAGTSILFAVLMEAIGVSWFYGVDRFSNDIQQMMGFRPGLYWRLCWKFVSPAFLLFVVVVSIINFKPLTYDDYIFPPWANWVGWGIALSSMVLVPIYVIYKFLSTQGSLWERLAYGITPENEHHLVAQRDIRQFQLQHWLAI

Chain of D(3) dopamine receptor (P35462 whole entry): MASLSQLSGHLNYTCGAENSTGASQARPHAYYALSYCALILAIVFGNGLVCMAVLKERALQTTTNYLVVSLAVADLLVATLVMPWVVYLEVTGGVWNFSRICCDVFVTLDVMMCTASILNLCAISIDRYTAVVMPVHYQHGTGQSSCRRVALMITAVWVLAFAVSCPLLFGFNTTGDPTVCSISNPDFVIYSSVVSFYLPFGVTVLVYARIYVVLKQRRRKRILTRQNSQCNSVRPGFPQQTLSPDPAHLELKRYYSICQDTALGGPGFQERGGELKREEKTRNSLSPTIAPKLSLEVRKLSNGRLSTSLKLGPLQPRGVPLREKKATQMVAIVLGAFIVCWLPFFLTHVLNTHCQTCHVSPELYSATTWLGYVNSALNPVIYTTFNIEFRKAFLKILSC

Compound	IC50 (D(3) dopamine receptor; cho)	IC50 [1]	Ki [1]	IC50 [2]	IC50 [3]	IC50 ([4]; mdck)	IC50 ([2]; read-out: IC50)	Ki [2]	IC50 (D(3) dopamine receptor; read-out: IC50)	Ki (D(3) dopamine receptor)	IC50 ([1]; read-out: IC50)	Ki ([1]; read-out: Ki)	IC50 ([4]; read-out: IC50)	Ki ([4]; read-out: Ki)
CC(C(=O)O)c1ccc2oc(-c3ccc(Cl)cc3)nc2c1 (stereo not drawn) [BENOXAPROFEN]	Not Active	Not Active	Not Active	Not Active	Not Active	Not Active	–	–	–	–	–	–	–	–
COc1ccc2cc3[n+](cc2c1OC)CCc1cc2c(cc1-3)OCO2.[Cl-] [BERBERINE CHLORIDE]	Not Active	Not Active	Not Active	Not Active	Not Active	Not Active	–	–	–	–	–	–	–	–
O=C(O)CCNC(=O)c1ccccc1 [BETAMIPRON]	Not Active	Not Active	Not Active	Not Active	Not Active	Not Active	–	–	–	–	–	–	–	–
CC(=O)Oc1ccc(C(c2ccc(OC(C)=O)cc2)c2ccccn2)cc1 [BISACODYL]	Not Active	Not Active	Not Active	Not Active	Not Active	Not Active	–	–	–	–	–	–	–	–
Cc1cc2c(OCC(CNC(C)(C)C)OC(=O)c3ccccc3)cccc2[nH]1 (stereo not drawn) [BOPINDOLOL]	Not Active	Not Active	Not Active	Not Active	Not Active	Not Active	–	–	–	–	–	–	–	–
Brc1c(NC2=NCCN2)ccc2nccnc12 [BRIMONIDINE]	Not Active	Not Active	Not Active	–	Not Active	Not Active	6.34 µM	2.57 µM	–	–	–	–	–	–
CN(C)[C@@H]1C(O)=C(C(N)=O)C(=O)[C@@]2(O)C(O)=C3C(=O)c4c(O)ccc(Cl)c4[C@@](C)(O)[C@H]3C[C@@H]12 [CHLORTETRACYCLINE]	Not Active	Not Active	Not Active	Not Active	Not Active	Not Active	–	–	–	–	–	–	–	–
CN/C(=N\CCSCc1nc[nH]c1C)NC#N [CIMETIDINE]	Not Active	Not Active	Not Active	Not Active	Not Active	Not Active	–	–	–	–	–	–	–	–
COc1cc(N)c(Cl)cc1C(=O)NC1CCN(CCCOc2ccc(F)cc2)CC1OC (stereo not drawn) [CISAPRIDE]	–	Not Active	Not Active	–	Not Active	Not Active	0.12 µM	0.049 µM	0.144 µM	0.049 µM	–	–	–	–
CCC(=O)O[C@]1(C(=O)CCl)[C@@H](C)C[C@H]2[C@@H]3CCC4=CC(=O)C=C[C@]4(C)[C@@]3(F)[C@@H](O)C[C@@]21C [CLOBETASOL PROPIONATE]	Not Active	Not Active	Not Active	Not Active	Not Active	Not Active	–	–	–	–	–	–	–	–
O=C1CN=C(c2ccccc2Cl)c2cc([N+](=O)[O-])ccc2N1 [CLONAZEPAM]	Not Active	–	–	Not Active	Not Active	Not Active	–	–	–	–	0.00493 µM	0.00402 µM	–	–
Nc1ccn([C@@H]2O[C@H](CO)[C@@H](O)[C@@H]2O)c(=O)n1 [CYTARABINE]	Not Active	Not Active	Not Active	Not Active	Not Active	Not Active	–	–	–	–	–	–	–	–
C[C@@H]1C[C@H]2[C@@H]3CCC4=CC(=O)C=C[C@]4(C)[C@@]3(F)[C@@H](O)C[C@]2(C)[C@H]1C(=O)CO [DESOXIMETASONE]	Not Active	Not Active	Not Active	Not Active	Not Active	Not Active	–	–	–	–	–	–	–	–
C[C@@H]1C[C@H]2[C@@H]3CCC4=CC(=O)C=C[C@]4(C)[C@@]3(F)[C@@H](O)C[C@]2(C)[C@@]1(O)C(=O)CO [DEXAMETHASONE]	Not Active	Not Active	Not Active	Not Active	Not Active	Not Active	–	–	–	–	–	–	–	–
CN(C)CC[C@@H](c1ccc(Cl)cc1)c1ccccn1 [DEXCHLORPHENIRAMINE]	Not Active	Not Active	Not Active	Not Active	Not Active	–	–	–	–	–	–	–	4.97 µM	4.92 µM
C[C@@H]1CC[C@@]2(OC1)O[C@H]1[C@@H](O)[C@H]3[C@@H]4CC[C@H]5C[C@@H](O[C@@H]6O[C@H](CO)[C@H](O[C@@H]7O[C@H](CO)C(O)[C@H](O[C@@H]8OC[C@@H](O)[C@H](O)[C@H]8O)[C@H]7O[C@@H]7O[C@H](CO)[C@H](O)[C@H](O[C@@H]8O[C@H](CO)[C@@H](O)[C@H](O)[C@H]8O)[C@H]7O)[C@H](O)[C@H]6O)[C@H](O)C[C@]5(C)[C@H]4CC[C@]3(C)[C@H]1[C@@H]2C (stereo partly drawn) [DIGITONIN]	Not Active	Not Active	Not Active	Not Active	Not Active	Not Active	–	–	–	–	–	–	–	–
OC(CCCN1CCCCC1)(c1ccccc1)c1ccccc1 [DIPHENIDOL]	–	Not Active	Not Active	Not Active	Not Active	Not Active	–	–	2.31 µM	0.785 µM	–	–	–	–
C[C@H]1O[C@@H](n2cc(F)c(=O)[nH]c2=O)[C@H](O)[C@@H]1O [DOXIFLURIDINE]	Not Active	Not Active	Not Active	Not Active	Not Active	Not Active	–	–	–	–	–	–	–	–
Cn1c(=O)c2c(ncn2CC(O)CO)n(C)c1=O (stereo not drawn) [DYPHYLLINE]	Not Active	Not Active	Not Active	Not Active	Not Active	Not Active	–	–	–	–	–	–	–	–
CC[C@H]1CN2CCc3cc(OC)c(OC)cc3[C@@H]2C[C@@H]1C[C@H]1NCCc2cc(OC)c(OC)cc21 [EMETINE]	Not Active	Not Active	Not Active	–	Not Active	Not Active	6.53 µM	2.64 µM	–	–	–	–	–	–
C[C@@H](CO)NC(=O)[C@@H]1C=C2c3cccc4[nH]cc(c34)C[C@H]2N(C)C1 [ERGONOVINE]	–	Not Active	Not Active	Not Active	Not Active	Not Active	–	–	0.567 µM	0.193 µM	–	–	–	–
COC(=O)CCc1ccc(OCC(O)CNC(C)C)cc1 (stereo not drawn) [ESMOLOL]	Not Active	Not Active	Not Active	Not Active	Not Active	Not Active	–	–	–	–	–	–	–	–
CCC1(C)CC(=O)NC1=O (stereo not drawn) [ETHOSUXIMIDE]	Not Active	Not Active	Not Active	Not Active	Not Active	Not Active	–	–	–	–	–	–	–	–
C#C[C@]1(OC(C)=O)CC[C@H]2[C@@H]3CCC4=C[C@@H](OC(C)=O)CC[C@@H]4[C@H]3CC[C@@]21C [ETHYNODIOL DIACETATE]	Not Active	Not Active	Not Active	Not Active	Not Active	Not Active	–	–	–	–	–	–	–	–
COc1cc([C@@H]2c3cc4c(cc3[C@@H](O[C@@H]3O[C@@H]5CO[C@@H](C)O[C@H]5[C@H](O)[C@H]3O)[C@H]3COC(=O)[C@H]23)OCO4)cc(OC)c1O [ETOPOSIDE]	Not Active	Not Active	Not Active	Not Active	Not Active	Not Active	–	–	–	–	–	–	–	–
C=CCc1ccc(O)c(OC)c1 [EUGENOL]	Not Active	Not Active	Not Active	Not Active	Not Active	Not Active	–	–	–	–	–	–	–	–
